Experimental data reported in publication PMC6265791, “Neuroprotective Activity of Some Marine Fungal Metabolites in the 6-Hydroxydopamin- and Paraquat-Induced Parkinson’s Disease Models” (Marine Drugs, 2018).
“Also recorded” adds a separate entry of the source. Read-outs that look alike come from different tables or passages of the source.

What was measured:
[1] = tested on: ROS formation in Neuro2a cells treated with 6-OHDA; test: ROS level analysis in 6-OHDA-treated cells; assay type: cell-based; settings: for Reduction of ROS level in 6-OHDA-treated cells / Effect on ROS formation in 6-OHDA-treated cells: 10 µM, 6-OHDA 50 µM, 30 min
Experimental: (§1) Cell suspensions (1 × 10^3 cells/well) were incubated with compound solutions (10 µM) for 1 h. Then, 6-OHDA at a concentration of 50 µM was added in each well, and cells were incubated for 30 min. In other experiments, cells were incubated with PQ at a concentration of 500 µM for 30 min and 1 h. Cells incubated without 6-OHDA/PQ and compounds, and with 6-OHDA/PQ only, were used as positive and negative controls, respectively. To study ROS formation, 20 µL of 2,7-dichlorodihydrofluorescein diacetate solution (Molecular Probes, Eugene, OR, USA) was added to each well, such that the final concentration was […], and the microplate was incubated for an additional 10 min at 37 °C. The intensity of dichlorofluorescein fluorescence was measured with plate reader PHERAstar FS (BMG Labtech, Ortenberg, Germany) at λex = 485 nm, and λem = 518 nm. The data were processed by MARS Data Analysis v. 3.01R2 (BMG Labtech, Ortenberg, Germany). The results were presented as a percentage of positive control data.

[2] = cited from earlier work
[3] = DPPH radical scavenger assay (cell-free); settings: for DPPH radicals scavenged: 100 µM
Experimental: DPPH radical scavenging activity of compounds was tested as described.
Compounds were dissolved in MeOH, and the solutions (160 µL) were dispensed into wells of a 96-well microplate. In all, 40 µL of the DPPH (Sigma-Aldrich, Steinheim, Germany) solution in MeOH (1.5 × 10^−4 M) was added to each well. Concentrations of compounds in mixture were 10 and 100 µM. The mixture was shaken and left to stand for 30 min, and the absorbance of the resulting solution was measured at 520 nm with a microplate reader MultiscanFC (ThermoScientific, Waltham, MA, USA). Radical scavenging activity of all compounds at 100 µM were presented as percent of MeOH data, and the concentration of DPPH radical scavenging at 50% (EC50) was calculated for some compounds.

[4] = Cell viability (cytotoxicity) assay, MTT; assay type: cell-based; settings: mouse, Neuro2a neuroblastoma cells; Neuro2a cells, 24 h, MTT
Experimental: (§2) The neuroblastoma cell line Neuro2a was purchased from ATCC. Cells were cultured in DMEM medium containing 10% fetal bovine serum (Biolot, St. Petersburg, Russia) and 1% penicillin/streptomycin (Invitrogen, Carlsbad, CA, USA). Cells were incubated at 37 °C in a humidified atmosphere containing 5% (v/v) CO2.
(§3) Cell suspension (1 × 10^3 cells/well) was incubated with different concentration of compounds for 24 h. After that, cell viability was determined using the MTT (3-(4,5-dimethylthiazol-2-yl)-2,5- diphenyltetrazolium bromide) method, according to the manufacturer’s instructions (Sigma-Aldrich, St. Louis, MO, USA). The results were presented as percent of control data, and concentration required for 50% inhibition of cell viability (IC50) was calculated.

[5] = tested on: neuroblastoma Neuro2a cells; test: Cell viability (cytotoxicity) assay, MTT; assay type: cell-based; settings: up to 100 µM
Experimental: as §2, §3

[6] = tested on: ROS formation in Neuro2a cells treated with paraquat (PQ); test: ROS level analysis in PQ-treated cells; assay type: cell-based; settings: for Decrease of ROS formation in PQ-treated cells: added 1 h before PQ (500 µM, 1 h); for Effect on ROS formation in PQ-treated cells: added 1 h before PQ (500 µM)
Experimental: as §1, with “Cell suspensions (1 × 10^3 cells/well) were incubated with compound solutions (10 µM) for 1 h.” left out

[7] = tested on: Neuro2a cells treated with 6-OHDA; test: 6-Hydroxydopamine-induced in vitro model of Parkinson's disease, cell viability (MTT); assay type: cell-based; settings: for Effect on 6-OHDA-treated cell viability: 10 µM; for Neuroprotective effect in 6-OHDA model at tenfold reduced concentration: 1 µM (concentration reduced tenfold)
Experimental: The neuroprotective activities of compounds in 6-hydroxydopamine-induced cell model of Parkinson’s disease were examined, as described previously.
Neuroblastoma Neuro2a line cells (1 × 10^3 cells/well) were treated with 50 µM of 6-hydroxydopamine (Sigma-Aldrich, St. Louis, MO, USA) for 1 h and, after that, the investigated compounds were added to the neuroblastoma cell suspension at a concentration of 1 and 10 µM. In the other case, the substances were added to the cells 1 h before the addition of the neurotoxin. Cells incubated without 6-OHDA and compounds, and with 6-OHDA only, were used as positive and negative controls, respectively. After 24 h, viability of cells was measured using the MTT method. The results were presented as a percent of positive control data.

[8] = tested on: PC12 cells; settings: pre-treating for 3 h; cited from earlier work
[9] = tested on: MPTP-treated neuroblastoma cells; settings: cited from earlier work
[10] = tested on: Neuro2a cells treated with PQ; test: Paraquat-induced in vitro model of Parkinson's disease, cell viability (MTT); assay type: cell-based; settings: added 1 h before PQ (500 µM)
Experimental: Neuroblastoma Neuro2a line cells (1 × 10^3 cells/well) were treated with compounds at concentrations of 1 and 10 µM for 1 h, and then 500 µM of paraquat (Sigma-Aldrich, St. Louis, MO, USA) was added to the neuroblastoma cell suspension. Cells incubated without paraquat and compounds, and with paraquat only, were used as positive and negative controls, respectively. The viability of cells was measured after 24 h using the MTT method. The results were presented as percent of positive control data.

[11] = cited from earlier work; remark: listed apart in the source
[12] = tested on: HL-60 tumor cells; settings: read-out: Cytotoxic activity IC50; cited from earlier work
[13] = tested on: A-549 tumor cells; settings: read-out: Cytotoxic activity IC50; cited from earlier work
[14] = tested on: P-388 tumor cells; settings: read-out: Cytotoxic activity IC50; cited from earlier work
[15] = tested on: KB tumor cells; settings: read-out: Cytotoxic activity IC50; cited from earlier work
[16] = tested on: A 549 tumor cells; settings: read-out: Cytotoxic activity IC50; cited from earlier work
[17] = tested on: Candida albicans; settings: cited from earlier work
[18] = tested on: osteoclast differentiation; settings: cited from earlier work
[19] = tested on: dopaminergic neuronal cell death in mouse PD model, nigral neurons, SH-SY5Y cells; settings: cited from earlier work
[20] = tested on: PC12 cells; settings: cited from earlier work
[21] = compound added 1 h after 6-OHDA
[22] = compound added 1 h before 6-OHDA
[23] = read-out: DPPH scavenger activity IC50

With `NCCc1cc(O)c(O)cc1O` [6-OHDA, 6-hydroxydopamine, reference compound] the “Increase of ROS level in Neuro2a cells by the neurotoxin” value ([1]; 30 min after addition to the cell suspension) was 30%.

For `COc1c(-c2ccc(O)c(O)c2)cc(OC)c2c1oc1cc(O)c(O)cc12` [Candidusin B, reference compound], the DPPH radical scavenging ([2]; 100 µg/mL) is listed as 59%.

For `CC(=O)NCC(=O)c1c[nH]c2cc(O)ccc12` [Compound 1, 6-hydroxy-N-acetyl-β-oxotryptamine], the “DPPH radicals scavenged” value [3] was 48%, the IC50 at 24 h [4] was > 100 µM and the “Cytotoxicity against Neuro2a cells” value [5] was “not cytotoxic; also recorded: non-cytotoxic”. The “Reduction of ROS level in 6-OHDA-treated cells” value (“Reduction of ROS level” for short) [1] was 18% and the “Decrease of ROS formation in PQ-treated cells” value (“Decrease of ROS formation” for short) ([6]; 10 µM) was 35%.

In the case of `COc1ccc2[nH]cc(CCNC(C)=O)c2c1` [Compound 1a, Melatonin, reference compound], the “Effect on 6-OHDA-treated cell viability” value [7, 21] is reported as “did not increase the viability”, the “Effect on 6-OHDA-treated cell viability” value [7, 22] is reported as “did not increase the viability; also recorded: ineffective” and the “Effect on ROS formation in 6-OHDA-treated cells” value [1] is reported as “decreased ROS formation in the 6-OHDA-treated neuronal cell stronger in comparison with 1”. The “Decrease of ROS formation” value ([6]; 10 µM) was 22%, the “Viability of PC12 cells in 6-OHDA-induced PD model” value [8] was “increased viability of the cells, and prevented apoptosis” and the “Caspase-3 enzyme activity, DNA fragmentation factor 45 cleavage and DNA fragmentation” value [9] was “diminished”.

With `Cc1cc(O)c(C)c(O)c1C(=O)O` [Compound 2, 3-methylorsellinic acid] the “DPPH radicals scavenged” value [3] was 10%, the IC50 at 24 h [4] was > 100 µM and the “Cytotoxicity against Neuro2a cells” value [5] was “not cytotoxic; also recorded: non-cytotoxic”. For the same molecule, the “Effect on 6-OHDA-treated cell viability” value [7, 21] was “no neuroprotective effect”, the “Effect on viability of PQ-treated cells” value [10] was “did not exhibit any protective effect” and the “Reduction of ROS level” value [1] was 30%. For the same molecule, the “Effect on ROS formation in PQ-treated cells” value [6] was “reduced ROS formation”.

With `COc1cc(O)c(C)c2c1COC(C)C2` (stereo not drawn) [Compound 3, 8-methoxy-3,5-dimethylisochroman-6-ol] the IC50 at 24 h [4] was > 100 µM, the “Cytotoxicity against Neuro2a cells” value [5] was “not cytotoxic; also recorded: non-cytotoxic” and the “Effect on viability of PQ-treated cells” value [10] was “did not exhibit any protective effect”. For the same molecule, the “Reduction of ROS level” value [1] was 45%, the “Effect on ROS formation in PQ-treated cells” value [6] was “reduced ROS formation” and the “DPPH Radical Scavenging % at 100 µM” value [11] was 62.0 ± 4.6 [16] %.

In the case of `COc1c(-c2ccc(O)cc2)cc(OC)c2c1oc1cc(O)c(O)cc12` [Compound 4, candidusin A], the “DPPH radicals scavenged” value [3] is reported as 32%, the IC50 at 24 h [4] is reported as 75.7 ± 5.6 µM and the “Effect on 6-OHDA-treated cell viability” value [7, 22] is reported as “had no effect”. The “Effect on viability of PQ-treated cells” value [10] was “did not have any effect”, the “Effect on ROS formation in 6-OHDA-treated cells” value [1] was “did not have any effect” and the “Decrease of ROS formation” value ([6]; 10 µM) was 27%. For the same molecule, the IC50 [12] was 77.6 µM, the IC50 [13] was 19.3 µM and the IC50 [14] was 46.8 µM.

In the case of `COc1c(-c2ccccc2)cc(OC)c2c1oc1cc(O)c(O)cc12` [Compound 5, 4″-dehydroxycandidusin A], the “DPPH radicals scavenged” value [3] is reported as 49%, the EC50 ([3]; concentration of DPPH radical scavenging at 50%) is reported as 101 ± 2.8 µM and the IC50 at 24 h [4] is reported as 78.9 ± 1.9 µM. The “Neuroprotective effect in 6-OHDA model at tenfold reduced concentration” value [7] was “neuroprotective effect was not preserved”, the “Reduction of ROS level” value [1] was 34% and the “Decrease of ROS formation” value ([6]; 1 µM) was 19%. For the same molecule, the “Decrease of ROS formation” value ([6]; 10 µM) was 40%, the IC50 [15] was 22.7 µM and the IC50 [16] was 34 µM.

In the case of `CN1C(=O)C(Cc2c(O)cccc2O)NC(=O)C1Cc1ccccc1` (stereo not drawn) [Compound 6, mactanamide], the “DPPH radicals scavenged” value [3] is reported as 15%, the IC50 at 24 h [4] is reported as > 100 µM and the “Cytotoxicity against Neuro2a cells” value [5] is reported as “not cytotoxic; also recorded: non-cytotoxic”. The “Neuroprotective effect in 6-OHDA model at tenfold reduced concentration” value [7] was “neuroprotective effect was preserved”, the “Effect on viability of PQ-treated cells” value [10] was “did not show any neuroprotective activity” and the “Reduction of ROS level” value [1] was 30%. The “Decrease of ROS formation” value ([6]; 1 µM) was 32%, the “Decrease of ROS formation” value ([6]; 10 µM) was 37% and the “Activity against Candida albicans” value [17] was “fungistatic activity”. For the same molecule, the “Influence on osteoclast differentiation” value [18] was “influence on osteoclast differentiation without any cytotoxicity”.

In the case of `CN1C(=O)[C@]23CC4=CC=C[C@H](O)[C@H]4N2C(=O)[C@@]1(CO)SS3` [Gliotoxin], the IC50 [2, 23] is listed as 5.2 µM.

For `C[n+]1ccc(-c2cc[n+](C)cc2)cc1` [PQ, paraquat], the “Increase of ROS levels in Neuro2a cells by the neurotoxin” value ([6]; 1 h after adding to the cell suspension) was 39% and the “Effect on ROS formation in Neuro2a cells” value ([6]; after 30 min) was “insignificant”.

For `COC(=O)[C@]12Oc3ccc(-c4ccc5c(c4O)C(=O)C4=C(O)C[C@@H](C)[C@H](O)[C@@]4(C(=O)OC)O5)c(O)c3C(=O)C1=C(O)C[C@@H](C)[C@@H]2O` [Secalonic acid A], the “Protection against MPTP-induced dopaminergic neuronal cell death” value [19] is given as “protected”.

In the case of `OCc1cc(O)c(Cc2cc(O)ccc2O)c(Cl)c1O` [Terrestrol G], the IC50 ([2]; read-out: DPPH-scavenging IC50) is listed as 4.1 µM.

In the case of `C[C@H]1CO[C@]2(C)Oc3cc(O)c4c(c3C[C@H]12)O[C@@]1(C)OC[C@H](C)[C@H]1C4` [Xyloketal B], the “Free radical scavenging in DPPH assay” value [2] is listed as “scavenged free radicals” and the “Protection of PC12 cells against ischemia-induced cell injury and MPTP-induced neurotoxicity” value [20] is listed as “protected”.

In the case of cryptoechinulin D, the IC50 [2, 23] is given as 23.6 µM.

In the case of neoechinulin E, the IC50 [2, 23] is listed as 46 µM.
